The results in this text go back to patent US9449726B2, “100Mo compounds as accelerator targets for production of 99mTc” (Washington University, priority 2013, dated 2016).

Entries after “also recorded” stand apart in the source; their conditions may differ.

This series relates to normal CD1 mice. The series is described as follows: SPECT/CT imaging of ^99mTc-MDP in small animals. It counts as in vivo. Here is the method: Preparation of ^99mTc-methylene diphosphonate (^99mTc-MDP) and Animal Imaging Studies. All animal studies were approved by the Animal Studies Committee at Washington University. ^99mTc-MDP was prepared using commercially available kits. 3.9 mg of a sterile lyophilized powder containing methylene diphosphonate as the main constituent, under the trade name MDP-BRACCO™ (Bracco Diagnostics Inc., Princeton, N.J.) was dissolved in 135 μL saline solution. From this solution 10 μL was pipetted and added to the 400 μL of 1.6×10^8Bq (4.3 mCi)^99mTcO4^− containing saline solution. Radio-ITLC was performed on this solution as described above. 100 μL of the prepared radiopharmaceutical with an activity of 2.0×10^7 Bq (0.55 mCi) was injected into one month old normal CD1 mice via tail vein followed by small animal SPECT/CT imaging (nanoSPECT, Bioscan, Washington D.C.). CT scans were performed using a tube voltage of 45 kV and a scan time of 1.5 seconds per projection while the animals were anesthetized by isofluorane. SPECT data were collected by monitoring in as helical scan at 45 projections and 60 seconds per projection using a 9-pinhole low energy collimator. SPECT images were collected for 45 minutes at 1.5, 3 and 4 hours post injection. The CT and SPECT images were reconstructed and colocalized using InVivoScope (inviCRO, LLC, Boston Mass.) and HiSPECT (Bioscan, Washington, D.C.).
In these experiments, activities of 2.0×10^7Bq of ^99mTc were injected into each mouse. Scan times of 45 minutes were employed in imaging while each mouse was anesthetized with isoflurane. FIG. 5 illustrates SPECT images of mice imaged at (a) 1.5 hours (b) 3 hours and (c) 4 hours post injection.

In the case of `O.O.O=P([O-])([O-])CP(=O)([O-])[O-].[99Tc+4]` [^99mTc-MDP, ^99mTc-methylene diphosphonate], the “SPECT images: uniformity of uptake in the backbone” value (CD1 mice, tail vein) is listed as “relatively uniform”. The “SPECT images: activity at the earliest time point” value (CD1 mice, tail vein, 1.5 hours post injection (FIG. 5A)) was “activity in the kidneys and bladder as expected; also recorded: activity was seen in the excretory organs as shown in FIG. 5A, namely the kidneys and bladder”. The “SPECT images: change of activity as time progressed” value (CD1 mice, tail vein, 3 hours and 4 hours post injection (FIGS. 5B and 5C)) is “clearance of radioactivity from these organs and increased accumulation in the bones and joints”. Moreover, under “CD1 mice, tail vein, backbone and joints”, the “SPECT images: regional uptake in the skeleton” value is “high activity uptake in the cervical, thoracic and lumbar regions of the backbone and major joints”. Where the note is “one month old normal CD1 mice, tail vein injection, 2.0×10^7 Bq (0.55 mCi), imaged 1.5, 3 and 4 hours post injection”, the “SPECT images: tissue uptake of ^99mTc” value was “accumulation of ^99mTc in the bones and joints; also recorded: uptake of the ^99mTc in the bones as expected”.
